Reference: ChEMBL document CHEMBL2375342, “Novel 5-(benzyloxy)pyridin-2(1H)-one derivatives as potent c-Met inhibitors” (Bioorg Med Chem Lett, 2013)
Activity calls are given as the source filed them. The rule behind the calls is not given here.

What was measured:
[1] = Antiproliferative activity in human EBC1 cells overexpressing c-MET after 72 hrs by sulforhodamine B assay; assay type: functional, cell-based; conditions: EBC-1, 72 h
[2] = target: T1, Hepatocyte growth factor receptor (Homo sapiens, UniProt P08581); assay: Inhibition of c-MET (unknown origin) at 1 uM after 60 mins by ELISA
[3] = target: T1, Hepatocyte growth factor receptor; assay: Inhibition of c-MET (unknown origin) at 10 uM after 60 mins by ELISA relative to control
[4] = target: T1, Hepatocyte growth factor receptor; assay: Inhibition of c-MET (unknown origin)
[5] = target: T2, Tyrosine-protein kinase receptor TYRO3 (Homo sapiens, UniProt Q06418); assay: Inhibition of TYRO3 (unknown origin)
T2 sequence (Q06418 whole entry): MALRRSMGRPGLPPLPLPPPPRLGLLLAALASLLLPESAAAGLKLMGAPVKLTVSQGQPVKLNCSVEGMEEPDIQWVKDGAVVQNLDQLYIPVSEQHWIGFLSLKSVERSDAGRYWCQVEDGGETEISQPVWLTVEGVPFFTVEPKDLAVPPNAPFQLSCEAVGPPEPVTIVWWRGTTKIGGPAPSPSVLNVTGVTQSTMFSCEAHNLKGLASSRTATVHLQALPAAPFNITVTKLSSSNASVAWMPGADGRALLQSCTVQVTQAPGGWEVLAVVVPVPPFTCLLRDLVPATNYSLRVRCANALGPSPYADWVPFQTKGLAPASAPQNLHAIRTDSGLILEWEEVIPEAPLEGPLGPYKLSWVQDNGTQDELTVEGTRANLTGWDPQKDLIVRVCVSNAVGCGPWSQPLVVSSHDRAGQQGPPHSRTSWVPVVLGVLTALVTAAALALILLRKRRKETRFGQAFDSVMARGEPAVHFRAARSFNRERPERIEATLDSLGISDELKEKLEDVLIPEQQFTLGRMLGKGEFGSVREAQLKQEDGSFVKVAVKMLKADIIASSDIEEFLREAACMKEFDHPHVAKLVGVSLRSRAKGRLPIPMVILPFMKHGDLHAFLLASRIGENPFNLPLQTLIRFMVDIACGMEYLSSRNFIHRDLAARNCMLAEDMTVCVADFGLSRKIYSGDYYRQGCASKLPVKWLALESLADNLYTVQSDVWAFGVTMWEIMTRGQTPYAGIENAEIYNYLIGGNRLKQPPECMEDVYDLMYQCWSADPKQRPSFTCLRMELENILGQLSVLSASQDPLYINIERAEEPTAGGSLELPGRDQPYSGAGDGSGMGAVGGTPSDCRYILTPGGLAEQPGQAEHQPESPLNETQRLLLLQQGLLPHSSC

[6] = target: Proto-oncogene tyrosine-protein kinase receptor Ret (Homo sapiens, UniProt P07949); assay: Inhibition of RET (unknown origin)
[7] = target: Vascular endothelial growth factor receptor 2 (Homo sapiens, UniProt P35968); assay: Inhibition of KDR (unknown origin)
[8] = target: T1, Hepatocyte growth factor receptor; assay: Inhibition of c-MET (unknown origin) after 60 mins by ELISA
[9] = target: Tyrosine-protein kinase ABL1 (Homo sapiens, UniProt P00519); assay: Inhibition of ABL (unknown origin)
[10] = target: Fibroblast growth factor receptor 1 (Homo sapiens, UniProt P11362); assay: Inhibition of FGFR1 (unknown origin)
[11] = target: Vascular endothelial growth factor receptor 1 (Homo sapiens, UniProt P17948); assay: Inhibition of FLT1 (unknown origin)
[12] = target: Receptor tyrosine-protein kinase erbB-4 (Homo sapiens, UniProt Q15303); assay: Inhibition of ERBB4 (unknown origin)
[13] = target: Epidermal growth factor receptor (Homo sapiens, UniProt P00533, L858R/T790M); assay: Inhibition of EGFR T790M/L858R double mutant (unknown origin); assay type: protein assay
[14] = target: Platelet-derived growth factor receptor alpha (Homo sapiens, UniProt P16234); assay: Inhibition of PDGFRalpha (unknown origin)
[15] = target: Epidermal growth factor receptor (Homo sapiens, UniProt P00533); assay: Inhibition of EGFR (unknown origin)
[16] = target: Macrophage-stimulating protein receptor (Homo sapiens, UniProt Q04912); assay: Inhibition of RON (unknown origin)
[17] = target: Receptor tyrosine-protein kinase erbB-2 (Homo sapiens, UniProt P04626); assay: Inhibition of ERBB2 (unknown origin)

T1 sequence (P08581 whole entry): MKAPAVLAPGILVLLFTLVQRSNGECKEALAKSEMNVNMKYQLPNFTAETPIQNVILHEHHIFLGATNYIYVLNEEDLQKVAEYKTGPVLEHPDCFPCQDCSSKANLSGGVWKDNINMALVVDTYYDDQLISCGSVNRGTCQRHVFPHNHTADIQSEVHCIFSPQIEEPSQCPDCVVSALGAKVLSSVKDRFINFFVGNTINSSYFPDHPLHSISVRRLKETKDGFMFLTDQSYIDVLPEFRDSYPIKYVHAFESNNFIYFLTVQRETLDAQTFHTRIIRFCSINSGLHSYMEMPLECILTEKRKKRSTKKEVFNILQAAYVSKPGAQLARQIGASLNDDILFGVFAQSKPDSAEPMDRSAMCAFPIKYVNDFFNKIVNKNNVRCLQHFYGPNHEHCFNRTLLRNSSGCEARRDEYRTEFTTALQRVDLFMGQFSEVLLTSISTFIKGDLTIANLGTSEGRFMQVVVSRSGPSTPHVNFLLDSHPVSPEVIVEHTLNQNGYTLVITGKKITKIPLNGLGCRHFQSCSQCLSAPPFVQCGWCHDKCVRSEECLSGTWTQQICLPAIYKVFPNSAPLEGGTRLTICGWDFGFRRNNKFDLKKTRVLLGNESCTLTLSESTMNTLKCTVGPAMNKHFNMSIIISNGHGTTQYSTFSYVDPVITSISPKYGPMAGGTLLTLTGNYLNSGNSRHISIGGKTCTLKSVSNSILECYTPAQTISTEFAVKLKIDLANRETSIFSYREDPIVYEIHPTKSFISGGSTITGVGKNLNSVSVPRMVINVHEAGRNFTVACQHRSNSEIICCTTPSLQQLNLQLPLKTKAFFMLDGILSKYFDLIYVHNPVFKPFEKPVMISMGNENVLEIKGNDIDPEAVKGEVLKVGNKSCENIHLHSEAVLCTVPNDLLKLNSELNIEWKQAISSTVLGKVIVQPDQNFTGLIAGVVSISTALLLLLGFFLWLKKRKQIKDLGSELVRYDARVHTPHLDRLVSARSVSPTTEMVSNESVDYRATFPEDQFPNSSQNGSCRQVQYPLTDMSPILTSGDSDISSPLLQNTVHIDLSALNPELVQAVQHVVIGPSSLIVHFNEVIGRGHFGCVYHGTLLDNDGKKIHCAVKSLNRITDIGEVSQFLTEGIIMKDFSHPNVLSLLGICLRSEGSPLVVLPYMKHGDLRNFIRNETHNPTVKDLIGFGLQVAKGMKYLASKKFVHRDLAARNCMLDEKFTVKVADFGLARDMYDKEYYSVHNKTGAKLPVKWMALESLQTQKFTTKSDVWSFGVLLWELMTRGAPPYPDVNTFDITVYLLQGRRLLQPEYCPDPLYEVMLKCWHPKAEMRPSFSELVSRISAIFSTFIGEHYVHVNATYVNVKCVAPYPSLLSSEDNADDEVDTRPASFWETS
Tyrosine-protein kinase ABL1, sequence (P00519 whole entry): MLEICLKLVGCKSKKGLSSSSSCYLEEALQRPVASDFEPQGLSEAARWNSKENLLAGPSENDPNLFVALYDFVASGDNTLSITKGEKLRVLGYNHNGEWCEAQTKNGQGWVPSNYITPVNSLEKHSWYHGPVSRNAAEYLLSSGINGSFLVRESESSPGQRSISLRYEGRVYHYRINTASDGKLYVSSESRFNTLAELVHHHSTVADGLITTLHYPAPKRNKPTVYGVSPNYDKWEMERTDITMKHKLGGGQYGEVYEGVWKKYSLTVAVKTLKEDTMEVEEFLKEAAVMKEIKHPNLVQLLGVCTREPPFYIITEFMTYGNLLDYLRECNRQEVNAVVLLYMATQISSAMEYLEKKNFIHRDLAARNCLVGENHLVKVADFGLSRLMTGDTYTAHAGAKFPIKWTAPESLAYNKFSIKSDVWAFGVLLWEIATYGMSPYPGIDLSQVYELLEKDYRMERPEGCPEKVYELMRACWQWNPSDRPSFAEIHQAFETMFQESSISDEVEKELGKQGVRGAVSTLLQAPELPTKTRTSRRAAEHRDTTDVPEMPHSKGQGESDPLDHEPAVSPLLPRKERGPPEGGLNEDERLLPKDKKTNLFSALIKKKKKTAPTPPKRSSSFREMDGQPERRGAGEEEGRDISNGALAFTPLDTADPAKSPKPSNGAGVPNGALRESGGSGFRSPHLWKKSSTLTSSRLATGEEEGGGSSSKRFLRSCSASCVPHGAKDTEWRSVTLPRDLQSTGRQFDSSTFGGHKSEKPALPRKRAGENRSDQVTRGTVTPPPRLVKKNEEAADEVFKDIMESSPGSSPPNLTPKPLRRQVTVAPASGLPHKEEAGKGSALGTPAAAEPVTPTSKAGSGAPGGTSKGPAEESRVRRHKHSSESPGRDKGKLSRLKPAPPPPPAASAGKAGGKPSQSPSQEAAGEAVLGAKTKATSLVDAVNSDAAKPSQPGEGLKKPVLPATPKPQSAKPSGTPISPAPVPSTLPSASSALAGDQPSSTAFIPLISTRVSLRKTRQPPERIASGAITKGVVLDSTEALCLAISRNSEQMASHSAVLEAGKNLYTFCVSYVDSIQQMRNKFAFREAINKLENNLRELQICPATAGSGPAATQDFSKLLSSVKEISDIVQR
Epidermal growth factor receptor (Homo sapiens, UniProt P00533), sequence (P00533 whole entry): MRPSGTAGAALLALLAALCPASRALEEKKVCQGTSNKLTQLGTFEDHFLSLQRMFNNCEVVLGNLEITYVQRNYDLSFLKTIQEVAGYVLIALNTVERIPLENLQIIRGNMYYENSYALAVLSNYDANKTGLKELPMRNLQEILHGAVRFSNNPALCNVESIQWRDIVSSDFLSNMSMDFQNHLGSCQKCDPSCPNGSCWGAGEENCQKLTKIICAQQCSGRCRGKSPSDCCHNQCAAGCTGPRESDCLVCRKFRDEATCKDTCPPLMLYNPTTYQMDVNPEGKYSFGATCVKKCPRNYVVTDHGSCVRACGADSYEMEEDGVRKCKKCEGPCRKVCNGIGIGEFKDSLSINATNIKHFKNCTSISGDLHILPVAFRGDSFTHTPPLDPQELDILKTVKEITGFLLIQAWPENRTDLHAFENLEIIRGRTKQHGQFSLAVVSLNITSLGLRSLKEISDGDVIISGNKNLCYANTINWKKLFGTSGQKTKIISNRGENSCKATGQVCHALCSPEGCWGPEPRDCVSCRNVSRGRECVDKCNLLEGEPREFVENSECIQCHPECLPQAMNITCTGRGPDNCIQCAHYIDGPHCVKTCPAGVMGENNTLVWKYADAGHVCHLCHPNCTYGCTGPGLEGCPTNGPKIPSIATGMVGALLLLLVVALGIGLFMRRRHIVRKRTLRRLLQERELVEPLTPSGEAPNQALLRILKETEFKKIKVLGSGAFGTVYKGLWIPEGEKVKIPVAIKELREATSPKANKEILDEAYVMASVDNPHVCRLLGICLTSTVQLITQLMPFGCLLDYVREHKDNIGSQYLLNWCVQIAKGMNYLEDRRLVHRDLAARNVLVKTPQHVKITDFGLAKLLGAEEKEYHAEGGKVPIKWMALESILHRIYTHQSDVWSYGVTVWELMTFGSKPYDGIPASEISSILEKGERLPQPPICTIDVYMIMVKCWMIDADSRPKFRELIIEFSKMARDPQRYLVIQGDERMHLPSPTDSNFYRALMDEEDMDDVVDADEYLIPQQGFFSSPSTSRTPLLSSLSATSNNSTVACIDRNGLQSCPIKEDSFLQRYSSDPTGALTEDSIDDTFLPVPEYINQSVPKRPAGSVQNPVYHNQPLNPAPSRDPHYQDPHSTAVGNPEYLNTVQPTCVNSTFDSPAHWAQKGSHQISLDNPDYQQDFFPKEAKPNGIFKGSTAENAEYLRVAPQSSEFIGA
Platelet-derived growth factor receptor alpha, sequence (P16234 whole entry): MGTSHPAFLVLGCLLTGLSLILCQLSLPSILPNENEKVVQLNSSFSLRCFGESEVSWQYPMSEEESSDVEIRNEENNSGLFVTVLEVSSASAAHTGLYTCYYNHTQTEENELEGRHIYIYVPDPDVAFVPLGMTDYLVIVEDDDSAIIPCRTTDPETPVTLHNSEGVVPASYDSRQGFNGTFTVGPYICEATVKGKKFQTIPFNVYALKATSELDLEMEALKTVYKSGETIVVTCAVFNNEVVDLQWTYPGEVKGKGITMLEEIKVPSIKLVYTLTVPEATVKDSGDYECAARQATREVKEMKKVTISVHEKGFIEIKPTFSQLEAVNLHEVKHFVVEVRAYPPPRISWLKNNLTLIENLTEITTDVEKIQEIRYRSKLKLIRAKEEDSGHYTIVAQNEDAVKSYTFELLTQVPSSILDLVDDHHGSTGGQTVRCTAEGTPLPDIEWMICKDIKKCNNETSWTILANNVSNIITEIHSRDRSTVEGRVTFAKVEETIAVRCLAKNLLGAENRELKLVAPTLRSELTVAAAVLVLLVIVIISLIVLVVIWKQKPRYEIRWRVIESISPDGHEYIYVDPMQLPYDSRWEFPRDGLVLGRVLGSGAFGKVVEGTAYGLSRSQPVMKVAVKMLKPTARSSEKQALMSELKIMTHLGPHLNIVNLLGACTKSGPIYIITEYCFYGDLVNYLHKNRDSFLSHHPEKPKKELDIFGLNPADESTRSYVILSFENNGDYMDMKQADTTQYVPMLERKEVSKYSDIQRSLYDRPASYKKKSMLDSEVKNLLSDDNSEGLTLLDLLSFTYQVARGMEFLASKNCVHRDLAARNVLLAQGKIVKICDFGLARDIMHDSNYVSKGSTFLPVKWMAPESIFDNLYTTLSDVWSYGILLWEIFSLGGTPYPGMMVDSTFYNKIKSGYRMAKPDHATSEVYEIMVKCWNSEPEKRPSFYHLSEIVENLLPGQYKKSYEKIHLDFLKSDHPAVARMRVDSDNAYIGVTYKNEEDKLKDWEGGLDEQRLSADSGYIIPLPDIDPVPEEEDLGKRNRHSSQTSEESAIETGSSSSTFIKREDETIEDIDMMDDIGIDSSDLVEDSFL

C[C@@H](Oc1c[nH]c(=O)c(C(=O)Nc2ccc(N3CCN(C)CC3)nc2)c1)c1c(Cl)ccc(F)c1Cl
IC50 [1]: 3900 nM

COc1ncc(O[C@H](C)c2c(Cl)ccc(F)c2Cl)cc1C(=O)Nc1ccc(N2CCN(C)CC2)cc1
inhibition [2]: inactive

C[C@@H](Oc1c[nH]c(=O)c(C(=O)NC2CCN(C)CC2)c1)c1c(Cl)ccc(F)c1Cl
inhibition [3]: < 50%

C[C@@H](Oc1c[nH]c(=O)c(C(=O)Nc2cnn(C)c2)c1)c1c(Cl)ccc(F)c1Cl
IC50 [1]: 9800 nM

C[C@@H](Oc1c[nH]c(=O)c(C(=O)Nc2ccc(CN3CCN(C)CC3)cc2)c1)c1c(Cl)ccc(F)c1Cl
IC50 [1]: 1100 nM

C[C@@H](Oc1c[nH]c(=O)c(C(=O)Nc2ccc3c(c2)CN(CCN(C)C)C3=O)c1)c1c(Cl)ccc(F)c1Cl
IC50 [1]: 2600 nM

CCN1CCN(c2ccc(NC(=O)c3cc(O[C@H](C)c4c(Cl)ccc(F)c4Cl)c[nH]c3=O)c(OC)c2)CC1
inhibition [2]: inactive

C[C@@H](Oc1c[nH]c(=O)c(C(=O)Nc2ccc(OCCN3CCOCC3)cc2)c1)c1c(Cl)ccc(F)c1Cl
IC50 [1]: 5900 nM

C[C@@H](Oc1cc(C(=O)Nc2ccc(C(=O)N3CCN(C)CC3)cc2)nnc1N)c1c(Cl)ccc(F)c1Cl
IC50 [4]: 0.69 nM

C[C@@H](Oc1c[nH]c(=O)c(C(=O)NCc2ccc(NS(C)(=O)=O)cc2)c1)c1c(Cl)ccc(F)c1Cl
inhibition [3]: < 50%

C[C@@H](Oc1c[nH]c(=O)c(C(=O)Nc2ccc(N3CCN(C)CC3)cc2)c1)c1c(Cl)ccc(F)c1Cl
IC50 [5]: > 1000 nM
IC50 [6]: > 1000 nM
IC50 [7]: > 1000 nM
IC50 [8]: 12 nM
IC50 [9]: 281 nM
IC50 [10]: > 1000 nM
IC50 [11]: > 1000 nM
IC50 [1]: 2200 nM
IC50 [12]: > 1000 nM
IC50 [13]: > 1000 nM
IC50 [14]: > 1000 nM
IC50 [15]: > 1000 nM
IC50 [16]: 446 nM
IC50 [17]: > 1000 nM

C[C@@H](Oc1c[nH]c(=O)c(C(=O)NCc2ccc(N3CCOCC3)cc2)c1)c1c(Cl)ccc(F)c1Cl
inhibition [3]: < 50%

C[C@@H](Oc1c[nH]c(=O)c(C(=O)Nc2cnn(C3CCNCC3)c2)c1)c1c(Cl)ccc(F)c1Cl
IC50 [1]: 1000 nM

C[C@@H](Oc1c[nH]c(=O)c(C(=O)Nc2cnn(CCO)c2)c1)c1c(Cl)ccc(F)c1Cl
IC50 [1]: 1100 nM
